These results are taken from ChEMBL document CHEMBL4665892, “Structural Basis for the Binding Mechanism of Human Serum Albumin Complexed with Cyclic Peptide Dalbavancin” (J Med Chem, 2020).

SMILES strings stand for the structures.

This series in a line: Protein binding in human plasma. The series is classed as ADME, cell-free. Particulars: read-out: PPB (converted).

On to `CCCCCCCCCC(=O)N[C@@H](Cc1c[nH]c2ccccc12)C(=O)N[C@H](CC(N)=O)C(=O)N[C@@H](CC(=O)O)C(=O)N[C@@H]1C(=O)NCC(=O)N[C@@H](CCCN)C(=O)N[C@@H](CC(=O)O)C(=O)N[C@H](C)C(=O)N[C@@H](CC(=O)O)C(=O)NCC(=O)N[C@H](CO)C(=O)N[C@@H]([C@H](C)CC(=O)O)C(=O)N[C@@H](CC(=O)c2ccccc2N)C(=O)O[C@@H]1C`, for which the fraction unbound was 0.15.
